US7201928B1, “Extracts of orange peel for prevention and treatment of cancer” (Rutgers, The State University of New Jersey, priority 1999, dated 2007)
Like-named read-outs stand apart in the source and are kept apart here.

How the values were obtained:
[1] = test system: W138VA (transformed) cells; test: cell proliferation assay, transformed cells; type: cell-based, human; details: for inhibition of cell growth in transformed cells: crystal violet, 0, 1, 5, 10, 20 or 50 μg/ml
Procedure: (§1) In addition to testing for the activity of the complete orange peel extract, two of the identified extract components, tangeretin and nobeletin, were tested for their combined activity in a cell proliferation assay. The growth of W138 (normal) and W138VA (transformed) cells was tested in the presence of a mixture of tangeretin and nobeletin. The dye crystal violet was used for measuring growth of the cells. Cells were treated with either tangeretin alone (0, 1, 5, 10, 20 or 50 μg/ml), nobeletin alone (0, 1, 5, 10, 20 or 50 μg/ml) or a mixture of the two compounds at a total concentration of the two flavenoids of 0, 1, 5, 10, 20 or 50 μg/ml. […] The range of doses of the extract tested was 0, 1, 5, 10, 20 and 50 μg/ml.
(§2) W138 human diploid fibroblasts and cancerous SV40-transformed W138 cells (W138VA) were used in a cell proliferation assay. Growth rate and viability of these cells was determined following addition of resveratrol or one of its analogs. Doses tested ranged from 50 ng to 300 μg per ml or 1 μM to 100 μM concentrations in culture media. […] MR-1 was not active as an inhibitor of cell growth even at doses as high as 100 μM.

W138 (normal) cells = test: cell proliferation assay and morphology, normal cells; type: cell-based, human; details: for effect on normal cell growth: crystal violet, 0, 1, 5, 10, 20 or 50 μg/ml; for neutral β-galactosidase activity (staining), senescence marker: W138 cells
Procedure: as §1, §2
Treatment of W138 and W138VA cells with resveratrol and its analogs also led to morphological changes in the cells. Treatment of W138 cells with resveratrol and its analogs R-1 and R-3 led to elongation of normal W138 cells. Methoxy analogs such as MR-0 and MR-3 caused the flattening of W138 cells. This flattening was accompanied by an increase in neutral β-galactosidase activity as indicated by an increase in staining.

[2] = test system: AOM-induced aberrant crypt foci (ACF); test: AOM-induced formation of aberrant crypt foci (colon cancer model); type: in vivo, Female CF-1 mice; details: 0.2% in diet
Procedure: The orange peel extract was then tested in an in vivo model for colon cancer. Female CF-1 mice were injected with azoxymethane (AOM) once a week for four weeks at increasing doses (5, 10, 10 and 10 mg/kg). Orange peel extract was administered in the diet (0.2%) starting two weeks before the first AOM injection, during and continuing until the end of the experiment at 24 weeks. At week 24, the mice were given one last dose of AOM (10 mg/kg). The mice were then sacrificed and their colons removed (from anus to caecum). The colons were opened longitudinally, rinsed with normal saline, and stapled to a plastic sheet. The colon samples were placed in a 10% neutral buffered formalin solution for 24 hours. The entire colon was stained with 0.2% methylene blue dissolved in phosphate buffered saline for 20 minutes. The whole mount of colon samples were then examined using light microscopy for the presence of aberrant crypt (AC) or aberrant crypt foci (ACF). Both ACF and AC are biomarkers for colon cancer. […] Mice fed nordihydroxyguaiaretic acid (NDGA) in the diet (0.2%) were used as controls.

AOM-induced colon tumors = test: AOM-induced colon tumorigenesis; details: 0.2% in AIN 76A diet + AOM
Procedure: In a similar experiment in the mouse colon cancer model, CF-1 mice were injected with AOM (5, 10, 10 and 10 mg/kg) starting at 6 weeks of age, once each week and then once at 37 weeks after the first dose of AOM. Throughout the treatment period, mice received either an AIN 76A diet or test compound in AIN 76A diet at 2 weeks before the first dose of AOM and continuing until the end of the experiment. The test compounds were NDGA (0.2%) and orange peel extract (0.2%). Colon samples were again obtained at sacrifice, stored in 10% formalin phosphate buffer, and then colon tumor number was determined.

W138 and W138VA cells = test: cell proliferation assay, cell line not specified for the result; type: cell-based, human
Procedure: as §1, §2

184-B5/HER cells = test: preclinical cell culture model for human ductal breast carcinoma in situ; type: cell-based; details: for cell cycle analysis: relative to solvent-treated control cultures
Procedure: Experiments were also performed in a preclinical cell culture model for human ductal breast carcinoma in situ (DCIS). The human breast-derived preneoplastic cell line 184-B5/HER expressed HER-2/neu, p53 and EGFR but not ER, therefore resembling the clinical DCIS. Initial dose-response experiments compared the growth inhibitory effect of orange peel extract on the parental 184-B5 cells and the HER-2/neu oncogene-expressing 184-B5/HER cells. […] Orange peel extract at the maximum cytostatic dose of 100 ppm accumulated the cells in the G0/G1 phase and inhibited the S+G2/M phase of the cell cycle, leading to down-regulation of cell cycle progression. […] Treatment of 184-B5/HER cells with 100 ppm orange peel extract induced a 7.6-fold increase in sub G0/G1 (apoptotic) population. Consistent with the induction of apoptosis, immunoreactivity to anti-apoptotic Bcl-2 was decreased by 33%.
Resveratrol and its analogs were also tested in preneoplastic 184-B5/HER human mammary epithelial cells.

[3] = test system: oncogene-expressing, preneoplastic breast epithelial cells; test: orthotransplant model, palpable tumor formation at transplant sites; details: AIN-76A diet supplemented with 400 ppm
Description: Mice were transplanted with oncogene-expressing, preneoplastic breast epithelial cells. Mice were then divided into groups with the control group fed AIN-76A diet alone. Another group of mice was fed AIN-76A diet supplemented with MR-3 (400 ppm).

[4] = read-out: concentration that inhibited growth by 50% (IC50), 184-B5/HER human mammary epithelial cells

Compound: COc1ccc(-c2cc(=O)c3c(OC)c(OC)c(OC)c(OC)c3o2)cc1 [tangeretin, 5,6,7,8,4′-pentamethoxyflavone]
- inhibition of cell growth in transformed cells [1]: only marginal effects
- effect on normal cell growth (W138 (normal) cells): no effect

Compound: CC(Cc1ccc(O)c(O)c1)C(C)Cc1ccc(O)c(O)c1 (stereo not shown) [NDGA, nordihydroxyguaiaretic acid]
- AC/ACF ([2]; 24 weeks): 3.5
- AC/colon ([2]; 24 weeks): 9.4 ± 2.2
- ACF/colon ([2]; 24 weeks): 2.7 ± 0.9
- ACF: 1 AC/colon ([2]; 24 weeks): 6.8 ± 1.5
- ACF: 2 AC/colon ([2]; 24 weeks): 1.0 ± 0.3
- ACF: 3 AC/colon ([2]; 24 weeks): 0.2 ± 0.2
- ACF: 4 AC/colon ([2]; 24 weeks): 0
- ACF: 5 AC/colon ([2]; 24 weeks): 0
- ACF: 6 AC/colon ([2]; 24 weeks): 0
- ACF: 7 AC/colon ([2]; 24 weeks): 0
- inhibition of the number of ACF per colon ([2]; vs positive control): 48%
- inhibition of the ratio of AC/ACF ([2]; vs positive control): 51%
- Colon Tumors Per Mouse (AOM-induced colon tumors): 0.27 ± 0.14
- Percent Incidence (AOM-induced colon tumors): 27%

Compound: Oc1ccc(C=Cc2cc(O)cc(O)c2)cc1 [resveratrol, reference compound]
- morphological changes of W138 cells (W138 (normal) cells): elongation
- concentration inhibiting cell growth (W138 and W138VA cells; tested 1 μM to 100 μM): less than 10 μM

Compound: COc1cc(C=Cc2cc(OC)cc(OC)c2)cc(OC)c1 [MR-4, 3,3′,5′5′-tetramethoxystilbene]
- growth of W138 cells (W138 (normal) cells; 100 μM): inhibited growth

Compound: COc1ccc(C=Cc2cc(OC)cc(OC)c2)cc1 [MR-0, 3, 4′,5-trimethoxystilbene]
- morphological changes of W138 cells (W138 (normal) cells): flattening
- neutral β-galactosidase activity (staining), senescence marker (W138 (normal) cells): increase
- inhibition of cell growth (W138 and W138VA cells; tested 1 μM to 100 μM): inhibited cell growth
- IC50 (184-B5/HER cells; [4]): 10.5 µM
- cell cycle analysis (184-B5/HER cells): progressive arrest of cells in the G2/M phase

Compound: COc1cc(C=Cc2ccc(OC)c(OC)c2)cc(OC)c1 [MR-2, 3,3′,4,5′-tetramethoxystilbene]
- IC50 (184-B5/HER cells; [4]): 120 µM
- cell cycle analysis (184-B5/HER cells): progressive arrest of cells in the G2/M phase

Compound: Oc1ccc(C=Cc2cc(O)c(O)c(O)c2)cc1 [R-3, 3,4,4′,5-tetrahydroxystilbene]
- morphological changes of W138 cells (W138 (normal) cells): elongation
- inhibition of cell growth (W138 and W138VA cells; tested 1 μM to 100 μM): inhibited cell growth

Compound: COc1cc(C=Cc2ccccc2)cc(OC)c1 [MR-1, 3,5-dimethoxystilbene]
- activity as inhibitor of cell growth (W138 and W138VA cells; doses as high as 100 μM): not active

Compound: COc1ccc(C=Cc2cc(OC)c(OC)c(OC)c2)cc1 [MR-3, 3,4,4′,5-tetramethoxystilbene]
- proliferation of W138VA cells ([1]; 1 μM): completely blocked proliferation
- morphological changes of W138 cells (W138 (normal) cells): flattening
- growth of W138 cells (W138 (normal) cells; 1 μM): no effect
- neutral β-galactosidase activity (staining), senescence marker (W138 (normal) cells): increase
- IC50 (184-B5/HER cells; Homo sapiens, 184B5, read-out: concentration that inhibited growth by 50% (IC50)): 1 µM
- cell cycle analysis (184-B5/HER cells): progressive arrest of cells in the G2/M phase
- toxicity (weight gains comparable) ([3]; 12 weeks): little toxicity
- tumor incidence ([3]; 12 weeks of continuous feeding): 20%

Compound: COc1ccc(-c2cc(=O)c3c(OC)c(OC)c(OC)c(OC)c3o2)cc1OC [nobeletin, 5,6,7,8,3′,4′-hexamethoxyflavone]
- inhibition of cell growth in transformed cells [1]: only marginal effects
- effect on normal cell growth (W138 (normal) cells): no effect

Compound: Oc1cc(O)cc(C=Cc2ccccc2)c1 [R-1, 3,5-dihydroxystilbene]
- morphological changes of W138 cells (W138 (normal) cells): elongation
